Data published in paper PMC3958483, “Fine Specificity and Molecular Competition in SLAM Family Receptor Signalling” (PLoS ONE, 2014).
Entries after “also recorded” stand apart in the source; their conditions may differ. Like-named read-outs stand apart in the source and are kept apart here. Non-standard residues stand in square brackets, D forms with d. Residues, ends and D or L forms follow the SMILES beside them. *: point of attachment. Biotin = O=C1N[C@H]2[C@H](CS[C@H]2CCCCC(=O)*)N1; pY = N[C@@H](Cc1ccc(OP(=O)(O)O)cc1)C(=O)O

Tests used:
EAT-2 [1] = biological target: T1, EAT-2 (Homo sapiens, UniProt O14796); assay: SPR binding of EAT-2 to immobilised phosphopeptides; conditions: 37°C
T1 construct: His-tag; made in house; host or cells: E. coli BL21(DE3)pLysS
T1 sequence (O14796 1-132): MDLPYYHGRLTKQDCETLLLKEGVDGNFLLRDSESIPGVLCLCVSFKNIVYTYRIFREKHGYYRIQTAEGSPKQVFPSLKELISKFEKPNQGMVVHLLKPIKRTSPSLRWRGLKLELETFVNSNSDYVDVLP
Description: (§1) Biotinylated EAT-2 was produced by expression of full length human EAT-2 with a C-terminal BirA tag ([…]) in the E coli expression vector pTrcHisA. Constructs encoding the 6xHis-tagged tandem SH2 domains plus the SH3 domains of PLCγ1 (Swiss-Prot: P19174, aa 536–863) and PLCγ2 (Swiss-Prot: P16885, aa 519–838) were generated in pTrcHisA (5′ joining sequence with BglII site underlined: gag atc tcc translates as EIS). The molecular weight (MW) and theoretical extinction coefficients (EC) of recombinant PLCγ1 and PLCγ2 SH2-SH2-SH3 domains were PLCγ1; MW = 42531, EC = 63,830 M^−1 cm^−1 and PLCγ2; MW = 42415, EC = 67,270 M^−1 cm^−1.
Soluble recombinant proteins were produced in BL21(DE3)pLysS E. coli (Calbiochem) at 37°C in 2TY medium and induced at OD 600 = 0.6 with 0.1 mM IPTG for 4 h or in 2XYT auto-induction (Formedium) medium overnight. Bacterial pellets were resuspended in ∼0.1 volume 10 mM HEPES pH7.4, 150 mM NaCl and used immediately or stored at −20°C in 10 ml aliquots. His-tag mediated protein purification was performed on a Co^2+ or Ni^2+ column by standard protocols. […] Where applicable, proteins were stored frozen in 10–25 mM HEPES pH 7.4, 200–300 mM NaCl (pH 7.4).All proteins were purified by size exclusion chromatography immediately prior to SPR analysis.
Measurements of protein-protein affinity were performed on BIAcore 3000 and T200 systems using CM5 or biotin capture chips (GE Healthcare Ltd, UK). Streptavidin was coupled to CM5 sensor chips using standard NHS/EDC chemical linkage, followed by immobilization of biotinylated peptides. The levels of peptide immobilized were approximately 25 and 50 response units respectively of single and tandem tyrosine motifs to facilitate saturating binding and limitation of “bridging” [22], [45]. Purified recombinant proteins were passed over the immobilized peptides at a range of concentrations in HBS-EP buffer, 10 mM HEPES pH 7.4, 150 mM NaCl, 3.4 mM EDTA, 0.005% surfactant, P20. Equilibrium binding coefficients and dissociation and association rates were calculated using BIAevaluation and/or GraphPad Prism 5.4 software.
(§2) The specificities of their SH2 domains overlap, introducing the concept of competition between them for ITSMs in cells where they are co-expressed, including NK cells.

EAT-2 [2] = conditions: ref [30]; cited from earlier work
Description: as §2

PLCγ1 (SH2-SH2-SH3) = biological target: T2, PLCγ1 (SH2-SH2-SH3) (Homo sapiens, UniProt P19174); assay: SPR binding of PLCγ1 SH2-SH2-SH3 to immobilised phosphopeptides; conditions: 37°C, ten two-fold dilutions, top concentration 1 μM, one-site specific binding model, curve shown in Figure 7B
T2 construct: PLCγ1 (Swiss-Prot: P19174, aa 536–863); 6xHis (N); made in house; host or cells: E. coli BL21(DE3)pLysS
T2 sequence (P19174 536-863): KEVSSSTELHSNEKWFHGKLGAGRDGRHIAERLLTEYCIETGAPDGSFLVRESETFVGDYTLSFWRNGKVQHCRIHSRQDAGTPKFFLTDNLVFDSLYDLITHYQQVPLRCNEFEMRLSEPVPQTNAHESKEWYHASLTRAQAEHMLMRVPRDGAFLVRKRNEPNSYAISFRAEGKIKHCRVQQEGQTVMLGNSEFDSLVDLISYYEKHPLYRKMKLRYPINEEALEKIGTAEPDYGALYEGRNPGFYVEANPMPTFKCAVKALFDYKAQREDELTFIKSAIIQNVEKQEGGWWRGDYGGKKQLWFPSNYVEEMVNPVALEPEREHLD
Description: as §1
(§3) Soluble recombinant proteins were produced in BL21(DE3)pLysS E. coli (Calbiochem) at 37°C in 2TY medium and induced at OD 600 = 0.6 with 0.1 mM IPTG for 4 h or in 2XYT auto-induction (Formedium) medium overnight. Bacterial pellets were resuspended in ∼0.1 volume 10 mM HEPES pH7.4, 150 mM NaCl and used immediately or stored at −20°C in 10 ml aliquots. His-tag mediated protein purification was performed on a Co^2+ or Ni^2+ column by standard protocols. […]
(§4) Measurements of protein-protein affinity were performed on BIAcore 3000 and T200 systems using CM5 or biotin capture chips (GE Healthcare Ltd, UK). […] Equilibrium binding coefficients and dissociation and association rates were calculated using BIAevaluation and/or GraphPad Prism 5.4 software. […]

PLCγ2 (SH2-SH2-SH3) = biological target: T3, PLCγ2 (SH2-SH2-SH3) (Homo sapiens, UniProt P16885); assay: SPR binding of PLCγ2 SH2-SH2-SH3 to immobilised phosphopeptides; conditions: KD (Figure 7B), 37°C, ten two-fold dilutions, top concentration 1 μM, one-site specific binding model, curve shown in Figure 7B
T3 construct: PLCγ2 (Swiss-Prot: P16885, aa 519–838); 6xHis (N); made in house; host or cells: E. coli BL21(DE3)pLysS
T3 sequence (P16885 519-838): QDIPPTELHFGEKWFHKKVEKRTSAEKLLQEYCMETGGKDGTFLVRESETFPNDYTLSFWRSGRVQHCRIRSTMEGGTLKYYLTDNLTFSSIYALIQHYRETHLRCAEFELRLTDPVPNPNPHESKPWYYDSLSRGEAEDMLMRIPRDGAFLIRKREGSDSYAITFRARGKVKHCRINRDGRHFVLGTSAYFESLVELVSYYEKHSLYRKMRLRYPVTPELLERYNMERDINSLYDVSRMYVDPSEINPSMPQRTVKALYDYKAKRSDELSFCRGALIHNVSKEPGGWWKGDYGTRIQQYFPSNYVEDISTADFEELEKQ
Description: as §1, §3, §4

[3] = Pull-down with phosphorylated CD244 ITSM1 from NK cell lysates, LC-MS/MS; format: binding; conditions: human NK cell lysates; compared with control phosphopeptide SHIP-1 Y865
Procedure: For pull-down of associated proteins, streptavidin Sepharose (GE Healthcare) was pre-coated with saturating amounts of peptide or EAT-2. NK92 cells (4×10^8) were treated with 500 μM pervanadate for 15 minutes, then lysed in PBS, 1% Triton X-100, 1 mM sodium orthovanadate in the presence of mammalian protease inhibitor solution (Sigma). Lysates were pre-cleared by centrifugation, followed by incubation with streptavidin Sepharose. Peptide or EAT-2-coated streptavidin beads were incubated with NK92 lysates for 2 hours at 4°C with rotation. Beads were washed once with 15 ml ice cold PBS/1% (v/v) Triton X-100. Bound protein was eluted using 100 mM glycine-HCl pH 2.5.
Protein samples were prepared for mass spectrometry as described previously. Briefly, eluted proteins were spun onto the membranes of Vivacon 500 filters (10,000 MWCO – Sartorius). Membranes were washed once with PBS then proteins were denatured with 8 M urea, reduced with 10 mM DTT in 25 mM ammonium bicarbonate buffer, followed by alkylation with 50 mM iodoacetamide. Proteins were then digested overnight with trypsin. Tryptic peptides were then eluted from the membrane and analyzed on an Ultimate 3000 HPLC-coupled Orbitrap XL mass spectrometer. Proteins were identified by liquid chromatography-coupled tandem mass-spectrometry (LC-MS/MS). Raw data files were converted to mzXML format using ReADW (v. 4.2.1) and submitted to the Central Proteomics Facilities Pipeline for database comparison and peptide identification. Searching against the International Protein Index (IPI) human protein sequence database for protein identification, protein and peptide hits were statistically validated by applying a 1% false discovery rate (FDR) by searching against a concatenated target/decoy database. Datasets were searched with variable peptide modifications for phosphotyrosine, phosphoserine, phosphothreonine, oxidation of methionine and deamination.
Protein identification data were exported into ProteinCenter (v3.8.3013 – Thermo Fisher) for filtering and annotation. Results were filtered to remove any proteins with less than 3 unique peptides, less than 10 percent sequence coverage, or median protein probability scores less than 0.5. To establish sample specificity, any protein with at least 10-fold greater sequence coverage in one sample compared with the other was considered to be specific for that sample.
Similarly, differences in specificity of inhibitory SH2 domain containing proteins for ITSMs are relevant to understanding mechanisms of inhibition by ITSMs. We focused on CD244 ITSMs to establish general paradigms.

SAP = biological target: T4, SAP (Homo sapiens, UniProt O60880); assay: SPR binding of SAP to immobilised phosphopeptides; conditions: 37°C
T4 construct: His-tag; made in house; host or cells: E. coli BL21(DE3)pLysS
T4 sequence (O60880 1-128): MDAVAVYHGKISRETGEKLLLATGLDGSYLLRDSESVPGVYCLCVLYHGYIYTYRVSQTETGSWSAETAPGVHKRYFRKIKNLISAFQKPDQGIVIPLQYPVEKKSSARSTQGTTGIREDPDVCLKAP
Procedure: Measurements of protein-protein affinity were performed on BIAcore 3000 and T200 systems using CM5 or biotin capture chips (GE Healthcare Ltd, UK). Streptavidin was coupled to CM5 sensor chips using standard NHS/EDC chemical linkage, followed by immobilization of biotinylated peptides. The levels of peptide immobilized were approximately 25 and 50 response units respectively of single and tandem tyrosine motifs to facilitate saturating binding and limitation of “bridging” [22], [45]. […] Equilibrium binding coefficients and dissociation and association rates were calculated using BIAevaluation and/or GraphPad Prism 5.4 software.

[4] = ten two-fold dilutions, top concentration 0.3 μM, one-site specific binding model, curve shown in Figure 2B, read-out: KD (Figure 2B)

## CC[C@H](C)[C@H](NC(=O)[C@H](CCC(=O)O)NC(=O)[C@@H](NC(=O)[C@@H](NC(=O)[C@H](CO)NC(=O)[C@H](Cc1ccc(OP(=O)(O)O)cc1)NC(=O)[C@@H](NC(=O)[C@@H](NC(=O)[C@H](CC(N)=O)NC(=O)[C@H](C)NC(=O)[C@@H]1CCCN1C(=O)CCCC[C@@H]1SC[C@@H]2NC(=O)N[C@@H]21)[C@@H](C)O)C(C)C)[C@@H](C)O)C(C)C)C(=O)O [CRACC ITSM2] (Biotin-PANTV[pY]STVEI-OH)
EAT-2 [1]; [4]
  Kd: 1 nM

## ADYDTI [mouse CRACC tyrosine motif in the equivalent position to human CRACC ITSM1]
EAT-2 [2]
  binding of EAT-2 to mouse CRACC motif: did not bind EAT-2

## CC[C@H](C)[C@H](NC(=O)[C@@H](NC(=O)[C@H](CC(C)C)NC(=O)[C@H](Cc1ccccc1)NC(=O)[C@H](CCC(=O)O)NC(=O)CCCC[C@@H]1SC[C@@H]2NC(=O)N[C@@H]21)[C@@H](C)O)C(=O)N[C@@H](Cc1ccc(OP(=O)(O)O)cc1)C(=O)N[C@@H](CCC(=O)O)C(=O)N[C@@H](CC(=O)O)C(=O)N[C@H](C(=O)N[C@@H](CCCCN)C(=O)N[C@@H](CC(=O)O)C(=O)O)C(C)C [CD244 ITSM1]
EAT-2 [1]; HBS-EP pH 7.4, soluble EAT-2, immobilised phosphopeptide, mean, n and range in own columns of Table 4, read-out: KD
  Kd: 60 nM
EAT-2 [1]; [4]
  Kd: 12 nM
PLCγ1 (SH2-SH2-SH3)
  Kd: 130 nM
PLCγ2 (SH2-SH2-SH3)
  Kd: 360 nM

## SHP-2: SH2 domain containing tyrosine phosphatase
[3]
  pull-down by CD244 ITSM1: pulled down by the ITSM peptide

## Biotin-GENTEpYDTIPH [CRACC ITSM1, synthetic biotinylated phosphopeptide from human CRACC ITSM1]
SAP
  binding of SAP: Neither SAP nor EAT-2 bound; also recorded: No specific association
EAT-2 [1]
  binding of EAT-2: Neither SAP nor EAT-2 bound; also recorded: No specific association
